# Experimental data: patent US9575064B2, “Methods relating to testing for lysosomal storage disorders” (PerkinElmer Health Sciences, Inc., priority 2014, dated 2017)
# Assays:
# [1] = cited from earlier work
# [2] = biological target: T1, galactocerebrosidase (GALC) (Homo sapiens, UniProt P54803); settings: Zhang et al; Li et al; cited from earlier work
# T1 sequence (P54803 43-685): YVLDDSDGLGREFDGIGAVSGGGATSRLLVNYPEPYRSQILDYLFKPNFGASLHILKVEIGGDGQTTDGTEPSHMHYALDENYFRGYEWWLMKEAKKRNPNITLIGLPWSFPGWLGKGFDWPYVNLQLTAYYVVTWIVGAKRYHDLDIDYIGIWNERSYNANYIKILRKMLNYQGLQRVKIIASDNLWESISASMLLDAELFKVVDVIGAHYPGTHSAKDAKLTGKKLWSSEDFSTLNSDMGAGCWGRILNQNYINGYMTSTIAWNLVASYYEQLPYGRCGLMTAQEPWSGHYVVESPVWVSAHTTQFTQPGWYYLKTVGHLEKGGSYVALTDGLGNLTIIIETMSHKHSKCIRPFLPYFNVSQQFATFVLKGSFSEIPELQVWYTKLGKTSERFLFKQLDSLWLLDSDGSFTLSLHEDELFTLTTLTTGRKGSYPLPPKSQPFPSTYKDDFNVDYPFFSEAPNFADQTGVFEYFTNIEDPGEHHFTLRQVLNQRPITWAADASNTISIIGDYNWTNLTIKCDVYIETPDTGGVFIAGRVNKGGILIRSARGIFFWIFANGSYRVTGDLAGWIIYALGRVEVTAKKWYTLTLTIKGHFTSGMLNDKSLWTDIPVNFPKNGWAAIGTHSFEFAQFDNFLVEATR
# [3] = biological target: T1, galactocerebrosidase (GALC); experiment: 6-plex DBS enzyme activity assay (FIA-MS/MS) with and without sodium oleate: GALC; format: biochemical; design: from tissue; host or cells: human dried blood spots (CDC control DBS: pooled cord blood, leukocyte-reduced adult blood)
# [4] = biological target: T2, α-L-iduronidase (IDUA) (Homo sapiens, UniProt P35475); experiment: 6-plex DBS enzyme activity assay (FIA-MS/MS) with and without sodium oleate: IDUA; format: biochemical
# T2 construct: from tissue; host or cells: human dried blood spots (CDC control DBS: pooled cord blood, leukocyte-reduced adult blood)
# T2 sequence (P35475 28-653): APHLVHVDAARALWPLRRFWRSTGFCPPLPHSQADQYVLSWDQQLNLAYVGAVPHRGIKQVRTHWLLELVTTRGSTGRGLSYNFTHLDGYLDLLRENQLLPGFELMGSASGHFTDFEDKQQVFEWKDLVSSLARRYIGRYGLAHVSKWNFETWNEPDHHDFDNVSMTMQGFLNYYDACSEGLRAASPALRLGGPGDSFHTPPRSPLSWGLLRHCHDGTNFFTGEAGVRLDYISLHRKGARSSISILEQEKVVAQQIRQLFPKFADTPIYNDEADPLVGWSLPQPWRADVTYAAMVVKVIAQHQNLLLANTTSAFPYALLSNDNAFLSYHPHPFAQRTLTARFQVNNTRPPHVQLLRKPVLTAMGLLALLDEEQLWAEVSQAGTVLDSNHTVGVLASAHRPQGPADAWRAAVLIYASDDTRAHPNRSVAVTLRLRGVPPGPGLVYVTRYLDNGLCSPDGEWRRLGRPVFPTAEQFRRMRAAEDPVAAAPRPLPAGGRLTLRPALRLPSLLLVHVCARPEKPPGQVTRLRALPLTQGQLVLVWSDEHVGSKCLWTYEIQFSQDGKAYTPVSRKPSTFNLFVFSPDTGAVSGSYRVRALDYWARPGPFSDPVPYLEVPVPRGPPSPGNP
# [5] = biological target: T3, acid β-glucocerebrosidase (ABG) (Homo sapiens, UniProt P04062); experiment: 6-plex DBS enzyme activity assay (FIA-MS/MS) with and without sodium oleate: ABG; format: biochemical
# T3 construct: from tissue; host or cells: human dried blood spots (CDC control DBS: pooled cord blood, leukocyte-reduced adult blood)
# T3 sequence (P04062 40-536): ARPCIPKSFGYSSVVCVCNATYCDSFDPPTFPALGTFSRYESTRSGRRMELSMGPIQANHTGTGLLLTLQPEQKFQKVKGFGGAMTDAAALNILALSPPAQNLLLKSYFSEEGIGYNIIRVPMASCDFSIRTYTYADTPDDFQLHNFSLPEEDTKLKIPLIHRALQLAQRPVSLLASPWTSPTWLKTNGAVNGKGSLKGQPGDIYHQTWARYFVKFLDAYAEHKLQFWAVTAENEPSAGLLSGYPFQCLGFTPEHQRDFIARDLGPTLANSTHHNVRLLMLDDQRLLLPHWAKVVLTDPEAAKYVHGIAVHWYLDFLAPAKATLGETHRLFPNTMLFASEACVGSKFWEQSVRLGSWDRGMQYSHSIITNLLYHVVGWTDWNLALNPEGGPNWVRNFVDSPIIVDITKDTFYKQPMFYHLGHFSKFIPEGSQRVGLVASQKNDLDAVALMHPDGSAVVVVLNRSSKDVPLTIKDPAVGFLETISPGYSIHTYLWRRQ
# [6] = biological target: T4, acid α-galactosidase A (GLA) (Homo sapiens, UniProt P06280); experiment: 6-plex DBS enzyme activity assay (FIA-MS/MS) with and without sodium oleate: GLA; format: biochemical
# T4 construct: from tissue; host or cells: human dried blood spots (CDC control DBS: pooled cord blood, leukocyte-reduced adult blood)
# T4 sequence (P06280 32-429): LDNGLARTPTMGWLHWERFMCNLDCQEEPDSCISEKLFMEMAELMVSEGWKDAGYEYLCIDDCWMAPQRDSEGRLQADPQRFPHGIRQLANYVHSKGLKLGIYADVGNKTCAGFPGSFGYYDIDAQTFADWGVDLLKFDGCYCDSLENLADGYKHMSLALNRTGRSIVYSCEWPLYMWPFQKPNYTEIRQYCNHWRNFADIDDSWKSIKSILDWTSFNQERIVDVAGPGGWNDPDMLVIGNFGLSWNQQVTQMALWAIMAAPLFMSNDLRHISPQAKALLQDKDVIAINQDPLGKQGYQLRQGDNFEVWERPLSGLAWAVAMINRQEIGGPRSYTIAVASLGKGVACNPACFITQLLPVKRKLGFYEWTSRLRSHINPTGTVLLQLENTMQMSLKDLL
# [7] = biological target: T5, acid α-glucosidase (GAA) (Homo sapiens, UniProt P10253); experiment: 6-plex DBS enzyme activity assay (FIA-MS/MS) with and without sodium oleate: GAA; format: biochemical
# T5 construct: from tissue; host or cells: human dried blood spots (CDC control DBS: pooled cord blood, leukocyte-reduced adult blood)
# [8] = biological target: T6, acid sphingomylenase (ASM) (Homo sapiens, UniProt P17405); experiment: 6-plex DBS enzyme activity assay (FIA-MS/MS) with and without sodium oleate: ASM; format: biochemical
# T6 construct: from tissue; host or cells: human dried blood spots (CDC control DBS: pooled cord blood, leukocyte-reduced adult blood)
# T6 sequence (P17405 47-631): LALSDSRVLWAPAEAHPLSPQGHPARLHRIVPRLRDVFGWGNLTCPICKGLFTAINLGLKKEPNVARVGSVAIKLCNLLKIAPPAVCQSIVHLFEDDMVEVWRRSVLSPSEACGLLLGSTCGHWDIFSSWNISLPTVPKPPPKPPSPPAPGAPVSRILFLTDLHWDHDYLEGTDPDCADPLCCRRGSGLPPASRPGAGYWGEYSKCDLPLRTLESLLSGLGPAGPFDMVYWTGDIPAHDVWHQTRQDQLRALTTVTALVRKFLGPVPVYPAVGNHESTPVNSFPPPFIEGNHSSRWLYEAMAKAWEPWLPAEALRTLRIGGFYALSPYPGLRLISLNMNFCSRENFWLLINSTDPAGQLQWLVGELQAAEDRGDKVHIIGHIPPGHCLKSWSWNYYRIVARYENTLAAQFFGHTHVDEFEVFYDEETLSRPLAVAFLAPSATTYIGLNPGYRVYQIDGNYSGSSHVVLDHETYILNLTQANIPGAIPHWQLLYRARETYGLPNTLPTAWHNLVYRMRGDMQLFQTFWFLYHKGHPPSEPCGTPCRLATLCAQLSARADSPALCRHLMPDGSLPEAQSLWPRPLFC
# [9] = CDC High Control DBS, with sodium oleate
# [10] = CDC High Control DBS, with vs without sodium oleate
# [11] = CDC Low Control DBS, with sodium oleate
# [12] = CDC Low Control DBS, with vs without sodium oleate
# [13] = CDC Medium Control DBS, with sodium oleate
# [14] = CDC Medium Control DBS, with vs without sodium oleate
# [15] = Med/Low Control DBS ratio, with vs without sodium oleate
# [16] = addition of sodium oleate, stated for the ceramides
# [17] = two assays differing only by addition or lack of sodium oleate
smiles,measurement,setting,value
CCCCCCCC/C=C\CCCCCCCC(=O)O [oleic acid],solubility in aqueous buffers,[1],very difficult to dissolve
same,effect on GALC enzyme,[2],enhancer
CCCCCCCC/C=C\CCCCCCCC(=O)[O-].[Na+] [sodium oleate],Enzyme Activity GALC,[3]; [9],6.72 µmol/L/h
same,Sodium oleate gain GALC,[3]; [10],126%
same,Enzyme Activity GALC,[3]; [11],0.45 µmol/L/h
same,Sodium oleate gain GALC,[3]; [12],118%
same,Enzyme Activity GALC,[3]; [13],3.22 µmol/L/h
same,Sodium oleate gain GALC,[3]; [14],133%
same,Sodium oleate gain of Med/Low ratio GALC,[3]; [15],117%
same,"widening of the gap between Low Control DBS and Medium Control DBS, GALC",[3]; [16],approximately 25%
same,enzyme activity GALC when sodium oleate was present,[3]; [17],improved
same,CDC Med/Low Control DBS activity ratio GALC,[3]; with sodium oleate,7.1
same,Enzyme Activity IDUA,[4]; [9],11.95 µmol/L/h
same,Sodium oleate gain IDUA,[4]; [10],111%
same,Enzyme Activity IDUA,[4]; [11],0.72 µmol/L/h
same,Sodium oleate gain IDUA,[4]; [12],107%
same,Enzyme Activity IDUA,[4]; [13],5.86 µmol/L/h
same,Sodium oleate gain IDUA,[4]; [14],116%
same,Sodium oleate gain of Med/Low ratio IDUA,[4]; [15],114%
same,CDC Med/Low Control DBS activity ratio IDUA,[4]; with sodium oleate,8.1
same,Enzyme Activity ABG,[5]; [9],11.46 µmol/L/h
same,Sodium oleate gain ABG,[5]; [10],162%
same,Enzyme Activity ABG,[5]; [11],0.95 µmol/L/h
same,Sodium oleate gain ABG,[5]; [12],159%
same,Enzyme Activity ABG,[5]; [13],5.44 µmol/L/h
same,Sodium oleate gain ABG,[5]; [14],175%
same,Sodium oleate gain of Med/Low ratio ABG,[5]; [15],120%
same,"widening of the gap between Low Control DBS and Medium Control DBS, ABG",[5]; [16],approximately 25%
same,enzyme activity ABG when sodium oleate was present,[5]; [17],improved
same,CDC Med/Low Control DBS activity ratio ABG,[5]; with sodium oleate,5.8
same,Enzyme Activity GLA,[6]; [9],13.15 µmol/L/h
same,Sodium oleate gain GLA,[6]; [10],104%
same,Enzyme Activity GLA,[6]; [11],1.00 µmol/L/h
same,Sodium oleate gain GLA,[6]; [12],95%
same,Enzyme Activity GLA,[6]; [13],6.57 µmol/L/h
same,Sodium oleate gain GLA,[6]; [14],106%
same,Sodium oleate gain of Med/Low ratio GLA,[6]; [15],114%
same,CDC Med/Low Control DBS activity ratio GLA,[6]; with sodium oleate,6.5
same,Enzyme Activity GAA,[7]; [9],13.48 µmol/L/h
same,Sodium oleate gain GAA,[7]; [10],110%
same,Enzyme Activity GAA,[7]; [11],0.99 µmol/L/h
same,Sodium oleate gain GAA,[7]; [12],105%
same,Enzyme Activity GAA,[7]; [13],7.08 µmol/L/h
same,Sodium oleate gain GAA,[7]; [14],115%
same,Sodium oleate gain of Med/Low ratio GAA,[7]; [15],115%
same,CDC Med/Low Control DBS activity ratio GAA,[7]; with sodium oleate,7.2
same,Enzyme Activity ASM,[8]; [9],2.54 µmol/L/h
same,Sodium oleate gain ASM,[8]; [10],117%
same,Enzyme Activity ASM,[8]; [11],0.16 µmol/L/h
same,Sodium oleate gain ASM,[8]; [12],95%
same,Enzyme Activity ASM,[8]; [13],1.29 µmol/L/h
same,Sodium oleate gain ASM,[8]; [14],122%
same,Sodium oleate gain of Med/Low ratio ASM,[8]; [15],136%
same,"widening of the gap between Low Control DBS and Medium Control DBS, ASM",[8]; [16],approximately 25%
same,enzyme activity ASM when sodium oleate was present,[8]; [17],improved
same,CDC Med/Low Control DBS activity ratio ASM,[8]; with sodium oleate,8.0
